# Measurements: the NIST ThermoML archive (doi:10.1016/j.fluid.2012.11.018)
# ± gives the expanded uncertainty stated by the source.
# Columns and labels:
# [1] = 298.2 K; 101.33 kPa; Liquid; Vibrating tube method
# [2] = refractive index (Na D-line) (dimensionless); settings: 298.2 K; 101.33 kPa; Liquid; Standard Abbe refractometry
Structure (SMILES),mass density [1],refractive index [2]
CC1CN1 (stereo not given) [2-methylaziridine],802.23 ± 0.8 kg/m3,1.4116 ± 0.0006
ClC(Cl)Cl [trichloromethane],1480.34 ± 0.34 kg/m3,1.4456 ± 0.0004
O [water],,1.333 ± 0.0004
